Data published in patent US20250332300A1 (priority 2024, published 2025).
Counter-ions that a name gives are not always drawn. Like-named read-outs stand apart in the source and are kept apart here. Values belong to the molecule of their own block, whether it stands above or below them.

Assays:
human HER2 (23-652) [1] = target: T1, human HER2 (23-652) (Homo sapiens, UniProt P04626); assay: TR-FRET competition assay for peptide potency, human HER2; assay type: binding; set-up: towards human HER2 (23-652) and mouse HER2 (23-653); made in house; host or cells: mammalian cells
human HER2 (23-652) [2] = target: T1, human HER2 (23-652); assay: Surface plasmon resonance (SPR) for assessment of peptide affinity, human HER2; assay type: binding; set-up: towards human HER2 (23-652) and mouse HER2 (23-653); made in house
How it was run: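 Binding kinetics fitted from sensorgrams with 280 s peptide association then 3000 s dissociation (30 uL/min), using HER2 (23-652) either directly immobilized (SA/CM5) or anti-Fc-captured; 3 M magnesium chloride used for regeneration.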

mouse HER2 (23-653) [3] = target: T2, mouse HER2 (23-653) (Mus musculus, UniProt P70424); assay: Surface plasmon resonance (SPR) for assessment of peptide affinity, mouse HER2; assay type: binding; set-up: mouse HER2 (23-653) using a Cy5 labeled peptide as a probe; made in house
Source text: Each protein was immobilized either onto a SA sensorchip (Cytiva, BR-1005-31) or CM5 sensorchip (Cytiva, BR-1005-30) to a density of 800-2000 RU.

mouse HER2 (23-653) [4] = target: T2, mouse HER2 (23-653); assay: TR-FRET competition assay for peptide potency, mouse HER2; assay type: binding; set-up: mouse HER2 (23-653) using a Cy5 labeled peptide as a probe; made in house; host or cells: mammalian cells; settings: 0.1 nM mouse HER2, 24 h incubation
[5] = amide bond, 30-membered ring, PyAOP/DIEA, DMF, resin, […], 50.0 °C, with chain assembly
[6] = SPR, human HER2 extracellular domain, 25° C., 1:1 binding model, read-out: huHER2-SPR-ONC KD
[7] = SPR, mouse HER2 extracellular domain, 25° C., 1:1 binding model, read-out: moHER2-SPR-ONC KD
[8] = TR-FRET competition with Cy5 labeled peptide probe, read-out: moHER2 TR-FRET IC50

Molecule: 2-(4-(((11S,48S)-48-((S)-2-((3S,6S,9S,12S,15S,18S,21S,24S,27S)-9-((1H-indol-3-yl)methyl)-27-acetamido-15-(4-acetamidobutyl)-12-((5-hydroxy-1H-indol-3-yl)methyl)-24-(4-hydroxybenzyl)-6-((S)-1-hydroxyethyl)-21-(hydroxymethyl)-N,4,16,19-tetramethyl-5,8,11,14,17,20,23,26,30-nonaoxo-18-phenethyl-1,4,7,10,13,16,19,22,25-nonaazacyclotriacontane-3-carboxamido)-3-(4-fluorophenyl)propanamido)-11-carbamoyl-5,13,47-trioxo-1-((3aS,4S,6aR)-2-oxohexahydro-1H-thieno[3,4-d]imidazol-4-yl)-16,19,22,25,28,31,34,37,40,43-decaoxa-6,12,46-triazadopentacontan-52-yl) carbamoyl) piperazin-1-yl) acetic acid TFA salt
ring closure, yield after HPLC [5]: 1.9%

Molecule: 2-(4-(((S)-5-((S)-2-((3S,6S,9S,12S,15S,18S,21S,24S,27S)-9-((1H-indol-3-yl)methyl)-15-(4-acetamidobutyl)-27-(3-aminopropanamido)-12-((5-hydroxy-1H-indol-3-yl)methyl)-24-(4-hydroxybenzyl)-6-((S)-1-hydroxyethyl)-21-(hydroxymethyl)-N,4,16,19-tetramethyl-5,8,11,14,17,20,23,26,30-nonaoxo-18-phenethyl-1,4,7,10,13,16,19,22,25-nonaazacyclotriacontane-3-carboxamido)-3-(4-fluorophenyl)propanamido)-6-amino-6-oxohexyl)carbamoyl)piperazin-1-yl) acetic acid TFA salt
ring closure, yield after HPLC (amide bond, 30-membered ring, DIC/Oxyma, DMF, resin, […], 75.0 °C, with chain assembly): 4.7%

Molecule: 2-(4-(((S)-5-((S)-2-((3S,6S,9S,12S,15S,18S,21S,24S,27S)-9-((1H-indol-3-yl)methyl)-15-(4-acetamidobutyl)-27-(5,39-dioxo-43-((3aS,4S,6aR)-2-oxohexahydro-1H-thieno[3,4-d]imidazol-4-yl)-8,11,14,17,20,23,26,29,32,35-decaoxa-4,38-diazatritetracontanamido)-12-((5-hydroxy-1H-indol-3-yl)methyl)-24-(4-hydroxybenzyl)-6-((S)-1-hydroxyethyl)-21-(hydroxymethyl)-N,4,16,19-tetramethyl-5,8,11,14,17,20,23,26,30-nonaoxo-18-phenethyl-1,4,7,10,13,16,19,22,25-nonaazacyclotriacontane-3-carboxamido)-3-(4-fluorophenyl)propanamido)-6-amino-6-oxohexyl)carbamoyl)piperazin-1-yl) acetic acid TFA salt
ring closure, yield after HPLC [5]: 0.5%

Molecule: 2-((1E,3E)-5-((E)-1-(6-((3-(((3S,6S,9S,12S,15S,18S,21S,24S,27S)-9-((1H-indol-3-yl)methyl)-15-(4-acetamidobutyl)-3-(((S)-1-(((S)-1-amino-6-(4-(carboxymethyl)piperazine-1-carboxamido)-1-oxohexan-2-yl)amino)-3-(4-fluorophenyl)-1-oxopropan-2-yl)(methyl)carbamoyl)-12-((5-hydroxy-1H-indol-3-yl)methyl)-24-(4-hydroxybenzyl)-6-((S)-1-hydroxyethyl)-21-(hydroxymethyl)-4,16,19-trimethyl-5,8,11,14,17,20,23,26,30-nonaoxo-18-phenethyl-1,4,7,10,13,16,19,22,25-nonaazacyclotriacontan-27-yl)amino)-3-oxopropyl)amino)-6-oxohexyl)-3,3-dimethyl-5-sulfoindolin-2-ylidene)penta-1,3-dien-1-yl)-1-ethyl-3,3-dimethyl-3H-indol-1-ium-5-sulfonate TFA salt
ring closure, yield after HPLC [5]: 2%

Molecule: 2-((1E,3E)-5-((E)-1-(6-(((S)-5-((S)-2-((3S,6S,9S,12S,15S,18S,21S,24S,27S)-9-((1H-indol-3-yl)methyl)-27-acetamido-15-(4-acetamidobutyl)-12-((5-hydroxy-1H-indol-3-yl)methyl)-24-(4-hydroxybenzyl)-6-((S)-1-hydroxyethyl)-21-(hydroxymethyl)-N,4,16,19-tetramethyl-5,8,11,14,17,20,23,26,30-nonaoxo-18-phenethyl-1,4,7,10,13,16,19,22,25-nonaazacyclotriacontane-3-carboxamido)-3-(4-fluorophenyl)propanamido)-6-amino-6-oxohexyl)amino)-6-oxohexyl)-3,3-dimethyl-5-sulfoindolin-2-ylidene)penta-1,3-dien-1-yl)-1-ethyl-3,3-dimethyl-3H-indol-1-ium-5-sulfonate
ring closure, yield after HPLC [5]: 1.7%

Molecule: 4-(((3S,6S,9S,12S,15S,18S,21S,24S,27S)-9-((1H-indol-3-yl)methyl)-15-(4-acetamidobutyl)-6-cyclopropyl-3-(((S)-1-(((S)-1,6-diamino-1-oxohexan-2-yl)amino)-3-(4-fluorophenyl)-1-oxopropan-2-yl)(methyl)carbamoyl)-12-((5-hydroxy-1H-indol-3-yl)methyl)-24-(4-hydroxybenzyl)-21-(hydroxymethyl)-4,16,19-trimethyl-5,8,11,14,17,20,23,26,31-nonaoxo-18-phenethyl-1,4,7,10,13,16,19,22,25-nonaazacyclohentriacontan-27-yl)amino)-4-oxobutanoic acid TFA salt
ring closure, yield after HPLC (amide bond, 31-membered ring, PyAOP/Et3N, then TFA, DCM, 0.79 mM, 2 steps): 61%

IC50 (human HER2 (23-652) [1]; value in parentheses (**): recalculated after further repetition, read-out: huHER2 TR-FRET IC50, recalculated value achieved after further repetition): 1.3 nM
Kd (human HER2 (23-652) [2]; [6]): 0.6 nM
Kd (mouse HER2 (23-653) [3]; [7]): 3.1 nM
IC50 (mouse HER2 (23-653) [4]; [8]): 4.4 nM
Molecule: CC(=O)NCCCC[C@H]1C(=O)N[C@@H](Cc2c[nH]c3ccc(O)cc23)C(=O)N[C@@H](Cc2c[nH]c3ccccc23)C(=O)N[C@@H]([C@H](C)O)C(=O)N(C)[C@H](C(=O)N(C)[C@@H](Cc2ccc(F)cc2)C(=O)N[C@@H](CCCCNC(=O)N2CCN(CC(=O)O)CC2)C(N)=O)CNC(=O)CC[C@H](NC(=O)CCNC(=O)CN2CCN(CC(=O)O)CCN(CC(=O)O)CCN(CC(=O)O)CC2)C(=O)N[C@@H](Cc2ccc(O)cc2)C(=O)N[C@@H](CO)C(=O)N(C)[C@@H](CCc2ccccc2)C(=O)N1C [Example C28]

IC50 (human HER2 (23-652) [1]; read-out: huHER2 TR-FRET IC50): < 0.1 nM
Kd (human HER2 (23-652) [2]; [6]): < 0.1 nM
Kd (mouse HER2 (23-653) [3]; [7]): 0.3 nM
IC50 (mouse HER2 (23-653) [4]; [8]): 0.2 nM
Molecule: CC(=O)NCCCC[C@H]1C(=O)N[C@@H](Cc2c[nH]c3ccc(O)cc23)C(=O)N[C@@H](Cc2c[nH]c3ccccc23)C(=O)N[C@@H](C2CC2)C(=O)N(C)[C@H](C(=O)N(C)[C@@H](Cc2ccc(F)cc2)C(=O)N[C@@H](CCCCNC(=O)c2ccc(F)nc2)C(N)=O)CNC(=O)CCC[C@H](NC(C)=O)C(=O)N[C@@H](Cc2ccc(O)cc2)C(=O)N[C@@H](CO)C(=O)N(C)[C@@H](CCc2ccccc2)C(=O)N1C [Example F1]

Molecule: COCCOCCOCCOCCOCCOCCOCCOCCOCCOCCOCCOCCC(=O)N[C@H]1CCCC(=O)NC[C@@H](C(=O)N(C)[C@@H](Cc2ccc(F)cc2)C(=O)N[C@@H](CCCCNC(=O)c2ccc([N+](C)(C)C)nc2)C(N)=O)N(C)C(=O)[C@H](C2CC2)NC(=O)[C@H](Cc2c[nH]c3ccccc23)NC(=O)[C@H](Cc2c[nH]c3ccc(O)cc23)NC(=O)[C@H](CCCCNC(C)=O)N(C)C(=O)[C@H](CCc2ccccc2)N(C)C(=O)[C@H](CO)NC(=O)[C@H](Cc2ccc(O)cc2)NC1=O [Example F4, TFA salt]
IC50 (human HER2 (23-652) [1]; huHER2 TR-FRET IC50, TR-FRET competition with Cy5 labeled peptide probe, 0.1 nM human HER2, 24 h incubation): < 0.1 nM
Kd (human HER2 (23-652) [2]): < 0.1 nM
Kd (mouse HER2 (23-653) [3]): 0.1 nM
IC50 (mouse HER2 (23-653) [4]; moHER2 TR-FRET IC50, TR-FRET competition with Cy5 labeled peptide probe): 0.3 nM

Molecule: (3R,6S,9S,12S,15S,18S,21S,24S,27S)-9-((1H-indol-3-yl)methyl)-27-acetamido-N—((S)-1-amino-3-(4-fluorophenyl)-1-oxopropan-2-yl)-6-cyclopropyl-12-((5-hydroxy-1H-indol-3-yl)methyl)-24-(4-hydroxybenzyl)-15,21-bis(hydroxymethyl)-N,4,16,19-tetramethyl-5,8,11,14,17,20,23,26,30-nonaoxo-18-phenethyl-1-thia-4,7,10,13,16,19,22,25,29-nonaazacyclohentriacontane-3-carboxamide
ring closure, yield after HPLC (thioether bond, 31-membered ring, DIEA, ACN/water, […], with chain assembly): 6%

Molecule: (3R,6S,9S,12S,15S,18S,21S,24S,27S)-9-((1H-indol-3-yl)methyl)-27-amino-N—((S)-1-amino-3-(4-fluorophenyl)-1-oxopropan-2-yl)-6-cyclopropyl-12-((5-hydroxy-1H-indol-3-yl)methyl)-24-(4-hydroxybenzyl)-15,21-bis(hydroxymethyl)-N,4,16,19-tetramethyl-5,8,11,14,17,20,23,26,30-nonaoxo-18-phenethyl-1-thia-4,7,10,13,16,19,22,25,29-nonaazacyclohentriacontane-3-carboxamide TFA salt
ring closure, yield after HPLC (thioether bond, 31-membered ring, DIEA, then pyrrolidine, ACN/water, […], with chain assembly): 1%
